The structures appear in SMILES notation.

The record followed here is patent US7744590B2, “Red to near-infrared photobiomodulation treatment of the visual system in visual system disease or injury” (Medical College of Wisconsin Research Foundation, Inc., priority 2003, dated 2010).

Data set [1] has as its system methanol-intoxicated rats.
Description: Animals were randomly assigned to one of four treatment groups: (1) Untreated control, (2) LED-treated control, (3) methanol-intoxicated and (4) LED-treated methanol-intoxicated rats. Rats were placed in a thermostatically controlled plexiglass chamber (22×55×22 cm; maintained at 22-23° C.) and exposed to a mixture of N2O/O2 (1:1; flow rate 2 liters/min) for the duration of the experiment. […] In the present studies, methanol (25% w/v methanol in saline) was administered (i.p.) to N2O/O2 treated rats at an initial dose of dose 4 g/kg, followed by supplemental doses of 1.5 g/kg at 24 and 48 hours.
Light-Emitting Diode Treatment. […] Rats were placed in a plexiglass restraint device (12.7×9×7.6 cm). The LED array was positioned directly over the animal at a distance of 1 inch, exposing the entire body. Treatment consisted of irradiation at 670 nm for 2 minutes and 24 seconds resulting in a power intensity of 28 mW/cm^2 and an energy density of 4 joules/cm^2 at 5, 25 and 50 hours after the initial dose of methanol.
ERG Procedures and Analyses. ERG experiments were performed as previously described (M. T. Seme, et al., supra, 1999; M. T. Seme, et al., supra, 2001). The light stimulation apparatus consisted of a three-beam optical system. All three beams were derived from tungsten-halide lamps (50 W, 12 V). Beam intensity was controlled by using neutral density step filters. ERG recordings were differentially amplified and computer-averaged. The amplified signal was processed through a two-stage active narrow bandpass filter (the half voltage of this filter was 0.2 times the center frequency). […] The averaged responses were measured (peak-to-trough amplitude) from a calibrated digital oscilloscope display.
Before ERG analysis, ophthalmoscopic examination confirmed that all eyes were free of lenticular opacities or other gross anomalies. […] The stimulus intensity yielding a 5-μV criterion response was determined by extrapolating between the two intensity points that bracketed the 5-μV response for each animal.
Data set [2] deals with methanol-intoxicated rats. In words: Rod and M-cone (15 Hz/510 nm) ERG after 72 hours of methanol intoxication. It is filed as in vivo, rat. As for the experimental part: (§1) Methanol-intoxication Protocol.
(§2) Light-Emitting Diode Treatment.
ERG Procedures and Analyses.
All sensitivity measures were made in triplicate.
15 Hz/510 nm ERG Response. ERGs were recorded in response to a 15-Hz flickering light at a wavelength of 510 nm over a 3-log unit range of light intensity.

Data set [3] concerns methanol-intoxicated rats. In words: Retinal histopathology by light and electron microscopy. The note with it: rat, in vivo.
Text: as §1, §2
Histopathologic Analysis.

As to `CO` [methanol, Methanol], the “increase of light intensity required for a 5-μV UV-cone response” value in data set [1] is 0.5 log units. The “maximal UV-cone ERG response amplitude” value in data set [1] (72 hours, no LED) came out at 18±6 μV. Besides, the “maximal UV-cone ERG amplitude as % of the maximum control response” value in data set [1] (no LED) is recorded as 30%. Moreover, the “increase of 5 μV threshold light intensity relative to control, 15-Hz/510-nm ERG” value in data set [2] turned out to be 0.6 log units. Moreover, in data set [2] (72 hours, no LED), the “maximal 15-Hz/510-nm ERG amplitude” value is on record as 18±5 μV; the “maximal rod and M-cone ERG amplitude as % of the maximum control response” value is “approximately 28%”. Moreover, in data set [2] (controls −3.0±0.1 LRRI), the “light intensity required to elicit a threshold (5 μV) 15-Hz/510-nm ERG response” value is −2.4±0.1 LRRI. For the same compound, the outer retinal histopathology result in data set [3] is reported as “Pronounced histopathologic changes”.
